The values that follow come from PubChem BioAssay AID1973 (The Scripps Research Institute Molecular Screening Center, 2009).

The source made the active and inactive calls.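 The calls were made as follows: active = IC50 dose giving half inhibition of the KLF5 reporter of 10 micromolar or lower; inactive = IC50 above 10 micromolar.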

In general, IC50 refers to the concentration that inhibits the measured activity by half.

The test system of the test is DLD-1 KLF5 promoter-luciferase reporter, luminescence. In words: KLF5 promoter reporter inhibitors, dose response, luminescence, DLD-1 cells, luciferase reporter (AID 1973). (Reporter assays use an easily measured gene product as a stand-in for the process of interest.)

As to `COc1ccc(N/N=C/c2c(C(=O)O)ccc3ccccc23)cc1`, the IC50 is 1.69 µM.
To `CCNC(=S)NNC(=O)c1cc(-c2ccc(OCC)cc2)nc2ccccc12` belongs 4.17 µM; to `Cc1nc2ccccn2c1-c1csc(Nc2cccc(O)c2)n1`, 0.395 µM.
On to `O=C(Nc1cccc(O)c1)c1cc(-c2ccc3c(c2)OCO3)on1`, for which the IC50 was 2.06 µM.
Consider `COc1ccc(OCc2cccc(C(=O)Nn3cc([N+](=O)[O-])cn3)c2)cc1`, for which the IC50 is 0.332 µM.
To `COc1ccc(C(=O)Nc2nc3ccccc3s2)c(OC)c1` belongs 2.35 µM; to `Cc1ccc(-c2nnc(SCC(=O)Nc3ccccc3F)o2)cc1`, 2.5 µM.
As to `CCCc1ccc(-c2ccc(/C=C/C(=O)O)cc2)nc1`, the IC50 is 0.416 µM.
To `COc1ccccc1N1CCN(Cc2cc(Br)c(O)c3ncccc23)CC1` belongs 2.68 µM; to `CCOC(=O)c1sc(NC(=O)c2cc3c(s2)CCC(C)C3)nc1C` (configuration not stated), 0.109 µM; to `O=C(N/N=C/c1cc(Br)ccc1OC(=O)c1ccc(Br)cc1)c1ccncc1`, 1.54 µM.
To `Cc1ccc(C(=O)Nc2nc3ccccc3[nH]2)cc1` belongs 3.53 µM; to `O=C(N/N=C/c1cc(Cl)ccc1O)c1cccnc1`, 1.63 µM; to `COc1ccc(OC)c(Nc2cc(C)nc3nc(C)nn23)c1`, 0.486 µM.
To `O=C(Nc1nc2cc3c(cc2s1)OCCO3)c1ccco1` belongs 1.55 µM.
Consider `COc1cc(N=Cc2c(O)[nH]c3ccccc23)cc(OC)c1OC`, for which the IC50 was 1.03 µM.
To `Cc1ccc(C(=O)O/N=C(\N)c2ccccn2)c(Cl)c1` belongs 2.8 µM.
To `c1ccc(-c2noc(-c3ccc4ccccc4c3)n2)nc1` belongs 0.798 µM; to `CCN(CC)S(=O)(=O)c1cc(OC)ccc1N=Nc1ccc(O)c2ncccc12`, 2.03 µM; to `O=C(O)c1cccc(COc2ccc3c(c2)CCC3)c1`, 0.695 µM.
To `O=C(O)CSCC(=O)Nc1ccc(C2CCCCC2)cc1` belongs 1.29 µM.
On to `CC(C)(C)c1ccc(C(=O)O/N=C(\N)c2ccccn2)cc1`, for which the IC50 is 0.27 µM.
To `COC(=O)c1nn(-c2ccc3c(c2)CCN3C(C)=O)cc1O` belongs 2.04 µM.
To `COc1cccc(/C=N/Nc2ccc([N+](=O)[O-])cn2)c1O` belongs 4.09 µM; to `COC(=O)C1=C(CN2CCCc3ccccc32)NC(=O)NC1c1ccc(F)cc1` (configuration not stated), 3.05 µM.
To `CNC1=C(N(C(C)=O)c2ccc(Br)cc2)C(=O)c2ccccc2C1=O` belongs 1.86 µM; to `O=C(N/N=C/c1c(O)ccc2ccccc12)c1cccnc1`, 1.62 µM; to `COC(=O)c1c(N)sc(C(=O)NCCc2ccccc2)c1C`, 1.93 µM.
Take `Cc1ccc2[nH]c(C(=O)N/N=C/c3ccccc3O)c(C)c2c1`: the IC50 was > 39.8 µM (inactive).
In the case of `COc1ccc(Cl)cc1C(=O)Nc1nc2ccccc2[nH]1`, the IC50 is 4.03 µM.
With `CCN1C=CC(=C2C(=O)c3ccccc3C2=O)C=C1`, the IC50 is 0.95 µM.
To `CC(C)(C)c1ccc(-c2noc(CCC(N)=O)n2)cc1` belongs 0.133 µM; to `CC(C)(C)C(=O)Nc1ccc(NC(=O)c2ccco2)nc1`, 0.96 µM; to `COc1cccc(/C=N/NC(=O)c2cc3c(OC)ccc(OC)c3[nH]2)c1O`, 2.46 µM.
To `Oc1cccc(/C=N/Nc2ccc(Cl)nn2)c1O` belongs 1.9 µM; to `CCOc1cc(Br)cc(/C=N/NC(=O)c2cccnc2)c1O`, 1.66 µM.
Take `O=C(NCCc1ccccc1F)c1ccc2c(c1)OCCO2`: the concentration for half-maximal inhibition (IC50) is 0.423 µM.
To `C[C@]12CCC3C(CCC4=CC(O)CC[C@@]43/C=N/O)C1(O)CCC2C1=CC(=O)OC1` (some centres not stated) belongs 2.19 µM.
To `CC(C)Oc1ccc(C(=O)Nc2nc3ccccc3[nH]2)cc1` belongs 1.65 µM; to `COC(=O)c1ccc2nc(Nc3nc4ccc(F)cc4s3)sc2c1`, 0.00698 µM.
Regarding `CCc1ccn2cc(-c3cc(-c4ccccc4)no3)nc2c1`, the IC50 was 0.66 µM.
To `O=C(Nc1ccc(N2CCCCC2)cc1)c1ccccn1` belongs 0.703 µM.
To `O=C(CSc1n[nH]c(-c2ccccn2)n1)Nc1ccc(Cl)cc1` belongs 4.38 µM.
To `COc1cccc(/C=N/Nc2ncc(C(F)(F)F)cc2Cl)c1O` belongs 0.562 µM.
Take `CC1CCN(Cc2c(C(=O)N/N=C/c3ccccc3O)nnn2-c2nonc2N)CC1`: the IC50 was 1.81 µM.
To `CC(C)(C)c1ccc(-c2noc(CCC(=O)NCC3CCCO3)n2)cc1` (configuration not stated) belongs 1.81 µM.
To `Clc1ccccc1/C=C/c1nc(-c2ccccn2)no1` belongs 1.54 µM; to `COc1ccc(OC)c(N/C=C/C(=O)c2ccccc2)c1`, 1.69 µM; to `COc1ccc(-n2ncc3c(N4CCCCC4)ncnc32)cc1`, 1.36 µM.
To `CN(C)c1ccc(/C=N/Nc2cccc(C(=O)O)c2)cc1` belongs 0.617 µM; to `CCCCN=C[C@]12CCC(O)CC1(O)CCC1[C@@H]2CC[C@]2(C)[C@H](C3C=CC(=O)O3)CCC12O` (some centres not stated), 2.02 µM; to `Cc1ccc(C(=O)Nc2cnc3ccccc3c2)cc1`, 0.735 µM.
`COc1ccc2[nH]c(C(=O)N/N=C/c3ccc(OC)c(O)c3)cc2c1`: the IC50 is 5.12 µM.
To `Cc1ccc(C(=O)O/N=C(\N)c2ccccn2)c(C)c1` belongs 1.42 µM; to `O=C(c1cc(-c2ccccc2Cl)on1)N1CCCC1`, 3.48 µM; to `COc1cc(/C=C/[N+](=O)[O-])ccc1OCc1cccc(C(=O)O)c1`, 2.07 µM.
To `O=C(NCCc1ccccc1)c1ccc2c(c1)OCCCO2` belongs 0.421 µM; to `Cn1cccc1-c1cc(C(=O)N/N=C/c2cc(Br)ccc2O)[nH]n1`, 1.5 µM; to `CC(C)(C)c1ccc(-c2noc(CCC(=O)Nc3cccnc3)n2)cc1`, 0.104 µM.
Take `CC(C)(C)c1ccc(C(=O)Nc2sc3c(c2C(=O)O)CCC3)cc1`: the IC50 was 1.16 µM.
Consider `Cc1cc(-c2ccccc2)n(-c2cc(N/N=C/c3ccccc3O)ncn2)n1`, for which the IC50 was 0.998 µM.
On to `CC(C)(C)C(=O)Nc1cc2nn(-c3ccccc3)nc2cc1Cl`, for which the IC50 was 0.0988 µM.
To `Nc1ccc(-c2nc3ccc(C(=O)O)cc3s2)cc1` belongs 0.383 µM.
To `CCc1ccn2cc(-c3ccc4c(c3)OCO4)nc2c1` belongs 1.9 µM.
To `CCc1ccc(NC(=O)c2cnn3ccccc23)cc1` belongs 1.86 µM; to `O=C(NC1=NCCS1)C1COc2ccccc2O1` (configuration not stated), 2.63 µM.
`C#Cc1ccc([C@@H]2C=C(C(=O)N3CCN(Cc4ccccc4)CC3)O[C@H](OCCCCO)C2)cc1`: the IC50 was 2.72 µM.
To `COc1cccc(/C=N/Nc2nccnc2Cl)c1O` belongs 2.08 µM.
To `O=C(CCCc1ccccc1)c1ccc2c(c1)OCCO2` belongs 1.24 µM; to `O=C1C(Nc2ccccc2)=C(N2CCCCC2)C(=O)c2ccccc21`, 13.4 µM (inactive); to `O=C(CN1C(=O)c2ccccc2S1(=O)=O)c1ccc(Cl)cc1Cl`, 1.69 µM.
Consider `Cc1cc(/C=N/Nc2nc(N)ncc2[N+](=O)[O-])c(C)n1-c1ccccc1F`, for which the IC50 is 0.401 µM.
To `O=C(Nc1cccnc1)c1cccs1` belongs 0.95 µM; to `COc1ccc2nc(SCC(=O)NC3CCCC3)c(C)cc2c1`, 1.36 µM.
To `COc1ccc(OC)c2[nH]c(C(=O)N/N=C/c3ccccc3O)cc12` belongs 1.67 µM; to `COc1cccc(/C=N/Nc2ccc(C(=O)O)cc2)c1O`, 0.0431 µM; to `C/C(=N\NC(=O)c1n[nH]c2c1CCC2)c1cccs1`, 2.43 µM.
As for `COc1ccc(C(=O)N/N=C/c2cc(Br)ccc2O)cc1OC`, the IC50 is 1.56 µM.
To `Cc1cc(C(=O)COC(=O)c2ccccc2O)c(C)n1Cc1cccs1` belongs 0.563 µM.
To `CC(C)CC(NC(=O)CCCNC(=O)CCC(=O)OC1O[C@H]2OC3(C)CC[C@H]4[C@H](C)CCC(C1C)C24OO3)C(=O)O` (some centres not stated) belongs 0.502 µM; to `CCOc1cccc(/C=N/NC(=O)c2ccc3c(c2)OCCO3)c1O`, 1.65 µM.
To `O=C(N/N=C/c1cc(O)ccc1Br)c1cccnc1` belongs 1.71 µM; to `CCc1ccc(C(=O)Nc2nc3ccccc3[nH]2)cc1`, 2.83 µM.
Consider `CCOC(=O)c1sc(NC(=O)c2sc(C)nc2C)nc1C`, for which the IC50 was > 39.8 µM (inactive).
To `O=C(Nc1cccc(C(=O)O)c1)Nc1ccc2c(c1)OCO2` belongs 0.838 µM.
To `CCCc1ccc(C(=O)O/N=C(\N)c2ccccn2)cc1` belongs 0.107 µM; to `Cc1ccc(C(=O)N/N=C/c2cc(Br)ccc2O)cn1`, 1.91 µM; to `Cc1ccc(S(=O)(=O)Nc2cc(Cl)c(O)c3ncccc23)cc1`, 1.82 µM.
To `C[C@@H]1O[C@@H](O[C@H]2C[C@@H](O)[C@]3(CO)[C@H]4[C@H](O)C[C@]5(C)[C@@H](C6=CC(=O)OC6)CC[C@]5(O)[C@@H]4CC[C@]3(O)C2)[C@H](O)[C@H](O)[C@H]1O` belongs 0.165 µM; to `N/C(=N\OCc1ccc([N+](=O)[O-])cc1)c1ccccn1`, 1.05 µM.
With `O=C(N/N=C/c1cccc(Oc2ccccc2)c1)c1ccccc1F`, the IC50 was 1.24 µM.
To `Oc1cccc2ccc(Nc3ccccn3)nc12` belongs 2.45 µM; to `Cc1ccc2nc(NC(=O)CCCc3nc4ccccc4s3)sc2c1`, 0.207 µM.
To `C[C@@H]1O[C@@H](O[C@H]2C[C@@H](O)[C@]3(CO)[C@H]4[C@H](O)C[C@]5(C)[C@@H](C6COC(=O)C6)CC[C@]5(O)[C@@H]4CC[C@]3(O)C2)[C@H](O)[C@H](O)[C@H]1O` (some centres not stated) belongs 3.85 µM.
To `CC(C)(C)c1ccc(C(=O)O/N=C(\N)c2ccccc2)cc1` belongs 1.75 µM; to `COc1cc(/C=N/O)ccc1OCc1ccc(C(=O)O)cc1`, 0.82 µM; to `NS(=O)(=O)c1ccc(N=Nc2ccc(O)c3ncccc23)cc1`, 3.18 µM.
For the compound `O=C(N/N=C/c1c(O)ccc2ccccc12)c1ccc(Br)o1`, the IC50 was 1.78 µM.
To `Cc1cc(C(=O)CN2C(=O)c3ccccc3S2(=O)=O)c(C)n1CC1CCCO1` (configuration not stated) belongs 0.267 µM.
As to `O=C(O)c1ccc(N/N=C/c2c[nH]c3ccccc23)cc1`, the IC50 was 1.52 µM.
To `CC1CCN(c2ccc(-c3cccs3)nn2)CC1` belongs 1.26 µM; to `COC(=O)c1ccc(Oc2cc(C)nc(-n3nc(C)cc3C)n2)cc1`, 0.52 µM.
